{"source": "patent US12042523B2", "about": "“Compositions and methods for managing or improving bone disorders, joint disorders, cartilage disorders, or a combination thereof” (Unigen, Inc., priority 2014, dated 2024)", "key": {"BKB1 receptor (BKB1R)": {"molecular_target": "T1, BKB1 receptor (BKB1R) (Homo sapiens, UniProt P46663)", "T1 construct": "Membranes from human IMR-90 lung fibroblasts, stimulated with IL-1β; endogenous in cells; host or cells: human IMR-90 lung fibroblasts stimulated with IL-1β (membranes)", "T1 sequence (P46663 1-353)": "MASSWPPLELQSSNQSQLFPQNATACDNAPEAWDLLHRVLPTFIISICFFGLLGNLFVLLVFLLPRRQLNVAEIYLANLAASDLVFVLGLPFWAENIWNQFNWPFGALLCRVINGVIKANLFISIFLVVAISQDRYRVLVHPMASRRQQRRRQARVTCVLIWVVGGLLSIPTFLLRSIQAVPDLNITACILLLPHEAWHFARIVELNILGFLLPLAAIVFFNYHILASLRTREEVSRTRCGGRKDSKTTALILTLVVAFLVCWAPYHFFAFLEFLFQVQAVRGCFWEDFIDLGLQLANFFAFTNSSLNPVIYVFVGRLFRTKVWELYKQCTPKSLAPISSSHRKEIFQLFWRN", "test": "Bradykinin B1 (BKB1) radioligand binding assay", "description": "Bradykinin B1 (BKB1) radioligand binding assay was conducted to determine the inhibition activity of Curcuma longa OE and extract fractions on BKB1 binding to BKB1 receptor (BKB1R). Membranes from human IMR-90 lung fibroblasts, stimulated with IL-1β in modified HEPES buffer (PH=7.4), were incubated with a test sample in the presence of 0.9 nM [^3H](Des-Arg^10)-Kallidin for 60 minutes at room temperature. After incubation, membranes were filtered and washed five times with modified DPBS buffer (pH=7.4). Samples were scintillation counted to determine the amount of specifically bound to the BKB1 receptor containing membrane.\nBKB1 binding assay, as described in Example 15, was used to test curcumin compound isolated from a Curcuma longa extract (Compound 11), as well as commercially available curcumin purchased from Sigma-Aldrich (C1386). Curcumin was tested at final concentrations ranging from 200 μM to 5 nM. Binding curves were plotted by non-linear regression fit (using GraphPad Prizm software). Ki values were computed using Cheng-Prusoff algorithm. In addition, inhibition of BKB2 receptor binding activity by curcumin was examined with methods similar to those described in Example 15 for the BKB1 receptor with some modifications. Bradykinin Radioligand Binding Assay (BKB2) was conducted using a standard assay under the following conditions: • 1. […] Reading: TopCount."}, "[1]": {"system": "rhIL-1α-mediated degradation of proteoglycan in rabbit articular cartilage explants", "test": "Ex vivo glycosaminoglycans (GAG) release assay", "format": "cell-based", "details": "for effect on rhIL-1α-mediated degradation of PG / % GAG release: rhIL-1α 5 ng/ml; for % GAG release: IL-1α alone = 100", "description": "Articular cartilage from hock joints of rabbits (2.5 kg body weight) was removed immediately after each animal was sacrificed and articular cartilage explants were obtained by following the method described by Sandy et al. (Biochem. Biophy Acta 543:36, 1978).\nBriefly, after the articular surfaces were surgically exposed under sterile conditions, approximately 200-220 mg articular surfaces per joint were dissected and submerged into complete medium (DMEM, supplemented with heat inactivated 5% FBS; penicillin 100 U/ml; streptomycin 100 ug/ml). They were then rinsed several times with the complete medium and incubated for 1 to 2 days at 37° C. in a humidified 5% CO2/95% air incubator for stabilization. The complete medium was replaced with a basal medium (DMEM, supplemented with heat-inactivated 1% FBS, 10 mM HEPES, and penicillin 100 U/ml streptomycin 100 μg/ml). Approximately 30 mg cartilage pieces (2×3×0.35 mm/piece) were placed in 24-well plates and treated with given concentrations of test agents. After pretreatment for 1 h, 5 ng/ml of rhIL-1α was added to the culture medium and further incubated at 37° C. in a humidified 5% CO2/95% air incubator. The culture medium was collected 24 h later and stored at −20° C. until assay.\nThe amount of sulphated GAGs (e.g., released from proteoglycans) in the medium at the end of the reaction reflects the amount of articular cartilage degradation, which was determined using the commercially available 1,9-dimethy-methylene blue method according to the instructions of the manufacturer (Blyscan™ assay, Accurate Chemical and Scientific Corp., Westbury, New York)."}}}
{"smiles": "COc1cc(/C=C/C(=O)CC(=O)/C=C/c2ccc(O)c(OC)c2)ccc1O", "note": "[Curcumin]", "values": [{"measurement": "BKB1 versus BKB2 binding inhibition", "setting": "BKB1 receptor (BKB1R)", "result": "selective BKB1 antagonist"}]}
{"smiles": "CC(C)=CCc1c(-c2ccc(O)cc2O)oc2c3c(cc(O)c2c1=O)OC(C)(C)C=C3", "note": "[Morusin]", "values": [{"measurement": "effect on rhIL-1α-mediated degradation of PG", "setting": "[1]", "result": "strong inhibitory effect"}]}
{"smiles": "OC[C@H]1O[C@@H](Oc2cc(O)cc(/C=C/c3ccc(O[C@@H]4O[C@H](CO)[C@@H](O)[C@H](O)[C@H]4O)cc3O)c2)[C@H](O)[C@@H](O)[C@@H]1O", "note": "[Mulberoside A, mulberroside A]", "values": [{"measurement": "effect on rhIL-1α-mediated degradation of PG", "setting": "[1]", "result": "strong inhibitory effect"}]}
{"smiles": "CC(=O)N[C@H]1C(O)O[C@H](CO)[C@@H](O)[C@@H]1O", "note": "(stereo partly drawn) [NAG, N-Acetyl Glucosamine]", "values": [{"measurement": "inhibition at 150 µg/mL", "setting": "[1]; Oryctolagus cuniculus, 150 μg/ml, individual", "result": 31.8, "unit": "%"}, {"measurement": "% GAG release", "setting": "[1]; sample 12.5 μg/ml", "result": 95.7, "unit": "%"}, {"measurement": "% GAG release", "setting": "[1]; sample 25 μg/ml", "result": 99.2, "unit": "%"}, {"measurement": "% GAG release", "setting": "[1]; sample 50 μg/ml", "result": 87.5, "unit": "%"}, {"measurement": "% GAG release", "setting": "[1]; sample 75 μg/ml", "result": 81.2, "unit": "%"}]}
{"smiles": "Oc1cc(O)cc(/C=C/c2ccc(O)cc2O)c1", "note": "[Oxyresveratrol]", "values": [{"measurement": "effect on rhIL-1α-mediated degradation of PG", "setting": "[1]", "result": "strong inhibitory effect"}]}
